# In US20140045824A1, “METHOD FOR PRODUCING COMPLEX CRYSTAL AND METHOD FOR SCREENING COMPLEX CRYSTAL” (priority 2011, published 2014):
# Assay: Cocrystal formation by heating under humidified condition without menthol (Comparative Example 7)
# Type: physicochemical
# Set-up: key: A cocrystal was completely formed.; B: A mixture of a cocrystal and the host compound or guest compound was formed.; C: A cocrystal was not formed (a mixture of the host compound and the guest compound was formed)
# Settings: host theophylline, no menthol, 80° C. and 90% RH
# Description: About 30 mg (0.167 mmoles) of theophylline and […] of L(+)-arginine were weighed and put into a test tube and mixed using an agate mortar. […] 15 mg of this mixed powder was weighed and put into a test tube and heated for 6 and 21 hours, respectively in a thermo-hygrostat at 80° C. and 90% RH, and the obtained solids were subjected to powder X-ray diffraction measurement and thermal analysis.
smiles,measurement,setting,value
N=C(N)NCCC[C@H](N)C(=O)O [L(+)-Arginine],"Cocrystal formation, Comparative Example 7, Heating for 6 hours",6 hours,A
same,"Cocrystal formation, Comparative Example 7, Heating for 21 hours",21 hours,A
